Measured values from the supplement of paper PMC10307832.

What was measured:
Assay in all cases: relative viability (nuclei count vs DMSO), 5 days (fraction); higher = more cells survive
LU99A = test system: LU99A
How it was run: (§1)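 Relative viability divides the nuclei count in treated wells by that in vehicle wells. Lung cancer cell lines were seeded in 1536-well plates, dosed by pin tool the next day, and fixed and stained after 5 days in one step with final 0.05% Triton X-100, 1% formaldehyde and 1 ug/ml Hoechst. Dosing was a single drug or a fixed anchor-drug dose plus five library-drug doses (not always all listed) in √10 steps, and values are medians of duplicate plates imaged at 4×.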

HCC-15 = test system: HCC-15
How it was run: as §1

NCI-H522 = test system: NCI-H522
How it was run: as §1

PC-14 = test system: PC-14
How it was run: as §1

NCI-H838 = test system: NCI-H838
How it was run: as §1

NCI-H2009 = test system: NCI-H2009
How it was run: as §1

NCI-H2126 = test system: NCI-H2126
How it was run: as §1

NCI-H358 = test system: NCI-H358
How it was run: as §1

NCI-H1651 = test system: NCI-H1651
How it was run: as §1

NCI-H2342 = test system: NCI-H2342
How it was run: as §1

HARA = test system: HARA
How it was run: as §1

SW 1573 = test system: SW 1573
How it was run: as §1

NCI-H650 = test system: NCI-H650
How it was run: as §1

UMC-11 = test system: UMC-11
How it was run: as §1

NCI-H2347 = test system: NCI-H2347
How it was run: as §1

HCC-78 = test system: HCC-78
How it was run: as §1

EPLC-272H = test system: EPLC-272H
How it was run: as §1

LC-2-ad = test system: LC-2-ad
How it was run: as §1

NCI-H1915 = test system: NCI-H1915
How it was run: as §1

NCI-H1993 = test system: NCI-H1993
How it was run: as §1

NCI-H2085 = test system: NCI-H2085
How it was run: as §1

NCI-H460 = test system: NCI-H460
How it was run: as §1

ABC-1 = test system: ABC-1
How it was run: as §1

COR-L23 = test system: COR-L23
How it was run: as §1

`COc1cc(N2CCC(C(N)=O)CC2)ccc1Nc1nc(N)c(Cl)c(Nc2ccccc2S(=O)(=O)C(C)C)n1` [HG-5-88-01] + COc1cccc2cc(-c3nc([C@H]4CC[C@H](C(=O)O)CC4)n4ncnc(N)c34)[nH]c12 [OSI-027] (partner 0.5 µM) was tested, and the relative viability (LU99A; first compound 0.04 µM) was 0.245, the relative viability (LU99A; first compound 0.1265 µM) was 0.316 and the relative viability (LU99A; first compound 0.4 µM) was 0.286. It also gave a relative viability (LU99A; first compound 1.265 µM) of 0.279, a relative viability (LU99A; first compound 4 µM) of 0.263 and a relative viability (HCC-15; first compound 0.04 µM) of 0.683. It also gave a relative viability (HCC-15; first compound 0.1265 µM) of 0.8, a relative viability (HCC-15; first compound 0.4 µM) of 0.539 and a relative viability (HCC-15; first compound 1.265 µM) of 0.547. It also gave a relative viability (HCC-15; first compound 4 µM) of 0.326, a relative viability (NCI-H522; first compound 0.04 µM) of 0.641 and a relative viability (NCI-H522; first compound 0.1265 µM) of 0.634. For the same compound, the relative viability (NCI-H522; first compound 0.4 µM) was 0.66, the relative viability (NCI-H522; first compound 1.265 µM) was 0.579 and the relative viability (NCI-H522; first compound 4 µM) was 0.61. It also gave a relative viability (PC-14; first compound 0.04 µM) of 0.849, a relative viability (PC-14; first compound 0.1265 µM) of 1.12 and a relative viability (PC-14; first compound 0.4 µM) of 0.65. For the same compound, the relative viability (PC-14; first compound 1.265 µM) was 0.321, the relative viability (PC-14; first compound 4 µM) was 0.218 and the relative viability (NCI-H838; first compound 0.04 µM) was 0.359. For the same compound, the relative viability (NCI-H838; first compound 0.1265 µM) was 0.333, the relative viability (NCI-H838; first compound 0.4 µM) was 0.238 and the relative viability (NCI-H838; first compound 1.265 µM) was 0.247. For the same compound, the relative viability (NCI-H838; first compound 4 µM) was 0.173, the relative viability (NCI-H2009; first compound 0.04 µM) was 0.565 and the relative viability (NCI-H2009; first compound 0.1265 µM) was 0.585. The relative viability (NCI-H2009; first compound 0.4 µM) was 0.423, the relative viability (NCI-H2009; first compound 1.265 µM) was 0.444 and the relative viability (NCI-H2009; first compound 4 µM) was 0.353. The relative viability (NCI-H2126; first compound 0.1265 µM) was 0.688, the relative viability (NCI-H2126; first compound 0.4 µM) was 0.71 and the relative viability (NCI-H2126; first compound 1.265 µM) was 0.518. The relative viability (NCI-H2126; first compound 4 µM) was 0.432, the relative viability (NCI-H358; first compound 0.04 µM) was 0.692 and the relative viability (NCI-H358; first compound 0.1265 µM) was 0.673. The relative viability (NCI-H358; first compound 0.4 µM) was 0.588, the relative viability (NCI-H358; first compound 1.265 µM) was 0.234 and the relative viability (NCI-H358; first compound 4 µM) was 0.133. It also gave a relative viability (NCI-H1651; first compound 0.04 µM) of 0.748, a relative viability (NCI-H1651; first compound 0.1265 µM) of 0.696 and a relative viability (NCI-H1651; first compound 0.4 µM) of 0.605. It also gave a relative viability (NCI-H1651; first compound 1.265 µM) of 0.627, a relative viability (NCI-H1651; first compound 4 µM) of 0.58 and a relative viability (NCI-H2342; first compound 0.04 µM) of 0.607. It also gave a relative viability (NCI-H2342; first compound 0.1265 µM) of 0.527, a relative viability (NCI-H2342; first compound 0.4 µM) of 0.611 and a relative viability (NCI-H2342; first compound 1.265 µM) of 0.485. It also gave a relative viability (NCI-H2342; first compound 4 µM) of 0.563, a relative viability (HARA; first compound 0.04 µM) of 0.378 and a relative viability (HARA; first compound 0.1265 µM) of 0.578. It also gave a relative viability (HARA; first compound 0.4 µM) of 0.437, a relative viability (HARA; first compound 1.265 µM) of 0.121 and a relative viability (HARA; first compound 4 µM) of 0.144. The relative viability (SW 1573; first compound 0.04 µM) was 0.624, the relative viability (SW 1573; first compound 0.1265 µM) was 0.609 and the relative viability (SW 1573; first compound 0.4 µM) was 0.359. For the same compound, the relative viability (SW 1573; first compound 1.265 µM) was 0.306, the relative viability (SW 1573; first compound 4 µM) was 0.375 and the relative viability (NCI-H650; first compound 0.04 µM) was 0.492. It also gave a relative viability (NCI-H650; first compound 0.1265 µM) of 0.476, a relative viability (NCI-H650; first compound 0.4 µM) of 0.431 and a relative viability (NCI-H650; first compound 1.265 µM) of 0.443. For the same compound, the relative viability (NCI-H650; first compound 4 µM) was 0.319, the relative viability (UMC-11; first compound 0.04 µM) was 0.347 and the relative viability (UMC-11; first compound 0.1265 µM) was 0.521. The relative viability (UMC-11; first compound 1.265 µM) was 0.464, the relative viability (UMC-11; first compound 4 µM) was 0.334 and the relative viability (NCI-H2347; first compound 0.04 µM) was 0.363. It also gave a relative viability (NCI-H2347; first compound 0.1265 µM) of 0.448, a relative viability (NCI-H2347; first compound 0.4 µM) of 0.388 and a relative viability (NCI-H2347; first compound 1.265 µM) of 0.25. For the same compound, the relative viability (NCI-H2347; first compound 4 µM) was 0.274, the relative viability (HCC-78; first compound 0.04 µM) was 0.359 and the relative viability (HCC-78; first compound 0.1265 µM) was 0.293. The relative viability (HCC-78; first compound 0.4 µM) was 0.349, the relative viability (HCC-78; first compound 1.265 µM) was 0.27 and the relative viability (HCC-78; first compound 4 µM) was 0.301. The relative viability (EPLC-272H; first compound 0.04 µM) was 0.31, the relative viability (EPLC-272H; first compound 0.1265 µM) was 0.278 and the relative viability (EPLC-272H; first compound 0.4 µM) was 0.294. The relative viability (EPLC-272H; first compound 1.265 µM) was 0.242, the relative viability (EPLC-272H; first compound 4 µM) was 0.0931 and the relative viability (LC-2-ad; first compound 0.04 µM) was 0.819. For the same compound, the relative viability (LC-2-ad; first compound 0.1265 µM) was 0.944, the relative viability (LC-2-ad; first compound 0.4 µM) was 0.826 and the relative viability (LC-2-ad; first compound 1.265 µM) was 0.558. The relative viability (LC-2-ad; first compound 4 µM) was 0.416, the relative viability (NCI-H1915; first compound 0.04 µM) was 0.63 and the relative viability (NCI-H1915; first compound 0.1265 µM) was 0.625. It also gave a relative viability (NCI-H1915; first compound 0.4 µM) of 0.69, a relative viability (NCI-H1915; first compound 1.265 µM) of 0.697 and a relative viability (NCI-H1915; first compound 4 µM) of 0.527. The relative viability (NCI-H1993; first compound 0.04 µM) was 0.536, the relative viability (NCI-H1993; first compound 0.1265 µM) was 0.504 and the relative viability (NCI-H1993; first compound 0.4 µM) was 0.52. The relative viability (NCI-H1993; first compound 1.265 µM) was 0.532, the relative viability (NCI-H1993; first compound 4 µM) was 0.536 and the relative viability (NCI-H2085; first compound 0.04 µM) was 0.713. For the same compound, the relative viability (NCI-H2085; first compound 0.1265 µM) was 0.872, the relative viability (NCI-H2085; first compound 0.4 µM) was 0.615 and the relative viability (NCI-H2085; first compound 1.265 µM) was 0.384. The relative viability (NCI-H2085; first compound 4 µM) was 0.321, the relative viability (NCI-H460; first compound 0.04 µM) was 0.604 and the relative viability (NCI-H460; first compound 0.1265 µM) was 0.655. For the same compound, the relative viability (NCI-H460; first compound 0.4 µM) was 0.543, the relative viability (NCI-H460; first compound 1.265 µM) was 0.344 and the relative viability (NCI-H460; first compound 4 µM) was 0.287. For the same compound, the relative viability (ABC-1; first compound 0.04 µM) was 0.468, the relative viability (ABC-1; first compound 0.1265 µM) was 0.428 and the relative viability (ABC-1; first compound 0.4 µM) was 0.399. The relative viability (ABC-1; first compound 1.265 µM) was 0.348, the relative viability (ABC-1; first compound 4 µM) was 0.293 and the relative viability (COR-L23; first compound 0.04 µM) was 0.772. The relative viability (COR-L23; first compound 0.1265 µM) was 0.79, the relative viability (COR-L23; first compound 0.4 µM) was 0.646 and the relative viability (COR-L23; first compound 1.265 µM) was 0.55. The relative viability (COR-L23; first compound 4 µM) was 0.505.
